Assay results from patent US9200001B2, “Triazolyl PDE10 inhibitors” (Merck Sharp & Dohme Corp., priority 2011, dated 2015).

Target: human PDE10A2 (Homo sapiens (Human), UniProt Q9Y233)
Experiment: PDE10 fluorescence polarization (IMAP FP) inhibition assay
Assay type: biochemical
Settings: FAM-labeled cAMP 50 nM, room temperature, read-out: PDE10a Ki
Method in brief: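 Cytoplasmic lysate of AD293 cells transiently expressing human PDE10A2, incubated 30 minutes at room temperature with 50 nM FAM-labeled cAMP in Tris pH 7.2 with MgCl2. Read by IMAP fluorescence polarization; 0% inhibition set by 1% DMSO, 100% by a reference PDE10 inhibitor.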

human PDE10A2, sequence (Q9Y233 267-1055): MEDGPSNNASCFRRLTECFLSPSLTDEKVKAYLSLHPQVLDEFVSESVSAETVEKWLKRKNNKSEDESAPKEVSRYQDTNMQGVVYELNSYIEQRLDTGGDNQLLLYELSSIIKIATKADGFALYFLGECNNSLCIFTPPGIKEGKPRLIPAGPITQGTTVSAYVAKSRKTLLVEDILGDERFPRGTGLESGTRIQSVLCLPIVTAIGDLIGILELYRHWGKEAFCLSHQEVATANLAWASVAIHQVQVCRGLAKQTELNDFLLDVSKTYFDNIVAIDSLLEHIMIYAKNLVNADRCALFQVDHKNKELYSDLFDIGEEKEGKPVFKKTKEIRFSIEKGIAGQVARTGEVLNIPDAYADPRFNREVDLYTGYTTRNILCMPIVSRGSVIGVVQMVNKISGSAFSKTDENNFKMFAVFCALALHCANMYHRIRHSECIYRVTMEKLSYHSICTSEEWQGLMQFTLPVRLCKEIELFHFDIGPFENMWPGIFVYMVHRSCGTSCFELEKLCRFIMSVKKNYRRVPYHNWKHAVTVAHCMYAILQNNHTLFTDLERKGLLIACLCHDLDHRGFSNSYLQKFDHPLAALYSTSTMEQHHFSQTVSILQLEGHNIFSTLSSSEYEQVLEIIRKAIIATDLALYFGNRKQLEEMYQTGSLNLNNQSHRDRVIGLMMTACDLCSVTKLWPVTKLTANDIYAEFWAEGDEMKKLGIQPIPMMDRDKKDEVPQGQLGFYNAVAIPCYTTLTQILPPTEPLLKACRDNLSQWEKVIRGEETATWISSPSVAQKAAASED

| Compound | Ki [nM] |
| --- | --- |
| Cc1nc([C@@H]2C[C@H]2c2nc3ccccc3n2C)cc(-n2nc(C)nc2C(C)(C)O)n1 [Cpd 98, 2-(3-methyl-1-{2-methyl-6-[(1R,2R)-2-(1-methyl-1H-benzimidazol-2-yl)cyclopropyl]pyrimidin-4-yl}-1H-1,2,4-triazol-5-yl)propan-2-ol] | 4.2 |
| Cc1nc([C@@H]2C[C@H]2c2nc3ccccc3n2Cc2ccccn2)cc(-n2nc(C)nc2C)n1 (stereo in doubt) [Cpd 73, 2-{2-[6-(3,5-dimethyl-1H-1,2,4-triazol-1-yl)-2-methylpyrimidin-4-yl]cyclopropyl}-1-(pyridin-2-ylmethyl)-1H-benzimidazole] | 13.1 |
| Cc1nc([C@H]2C[C@@H]2c2nc3ccccc3n2C)cc(-n2nc(C)nc2-c2ccccn2)n1 (stereo in doubt) [Cpd 82, 1-methyl-2-{2-[2-methyl-6-(3-methyl-5-pyridin-2-yl-1H-1,2,4-triazol-1-yl)pyrimidin-4-yl]cyclopropyl}-1H-benzimidazole] | > 75 |
| CCOc1nc([C@@H]2C[C@H]2c2nc3ccccc3n2C)cc(-n2nc(C)nc2C)n1 [Cpd 63, 2-{(1R,2R)-2-[6-(3,5-dimethyl-1H-1,2,4-triazol-1-yl)-2-ethoxypyrimidin-4-yl]cyclopropyl}-1-methyl-1H-benzimidazole] | 0.54 |
| CCc1nc([C@H]2C[C@@H]2c2nc3ccccc3n2C)cc(-n2nc(C)nc2C)n1 (relative stereo) [Cpd 119, trans-2-{2-[6-(3,5-dimethyl-1H-1,2,4-triazol-1-yl)-2-ethylpyrimidin-4-yl]cyclopropyl}-1-methyl-1H-benzimidazole] | 1.2 |
| COc1ccc(Cc2nc(C)nn2-c2cc(CCc3ccc(C)cn3)nc(C)n2)cc1OC [Cpd 5, 4-(5-(3,4-dimethoxybenzyl)-3-methyl-1H-1,2,4-triazol-1-yl)-2-methyl-6-(2-(5-methylpyridin-2-yl)ethyl)pyrimidine] | 0.14 |
| CO[C@@H](C)c1nc(C)nn1-c1cc([C@@H]2C[C@H]2c2nc3ccccc3n2C)nc(C)n1 [Cpd 95, 2-[(1R,2R)-2-(6-{5-[(1S)-1-methoxyethyl]-3-methyl-1H-1,2,4-triazol-1-yl}-2-methylpyrimidin-4-yl)cyclopropyl]-1-methyl-1H-benzimidazole] | 2.1 |
| Cc1nc([C@@H]2C[C@H]2c2nc3ccccc3n2C)cc(-n2nc(C)nc2C(C)(C)C)n1 [Cpd 100, 2-{(1R,2R)-2-[6-(5-tert-butyl-3-methyl-1H-1,2,4-triazol-1-yl)-2-methylpyrimidin-4-yl]cyclopropyl}-1-methyl-1H-benzimidazole] | 13.8 |
| COc1ccc(Cc2nc(C)nn2-c2cc(CCc3ccc4ccccc4n3)nc(C)n2)cc1OC [Cpd 3, 2-(2-(6-(5-(3,4-dimethoxybenzyl)-3-methyl-1H-1,2,4-triazol-1-yl)-2-methylpyrimidin-4-yl)ethyl)quinoline] | 0.004 |
| COCc1ncnn1-c1cc([C@@H]2C[C@H]2c2nc3ccccc3n2C)nc(C)n1 [Cpd 94, 2-[(1R,2R)-2-{6-[5-(methoxymethyl)-1H-1,2,4-triazol-1-yl]-2-methylpyrimidin-4-yl}cyclopropyl]-1-methyl-1H-benzimidazole] | 5.3 |
| Cc1nc(C2CC2c2nc3cc(F)c(F)cc3[nH]2)cc(-n2nc(C)nc2C)n1 (centres unmarked) [Cpd 54, 2-(2-(6-(3,5-dimethyl-1H-1,2,4-triazol-1-yl)-2-methylpyrimidin-4-yl)cyclopropyl)-5,6-difluoro-1H-benzo[d]imidazole] | 25.1 |
| Cc1nc(C)n(-c2cc([C@H]3C[C@@H]3c3nc4ccccc4n3C)nc(N)n2)n1 (relative stereo) [Cpd 123, trans-4-(3,5-dimethyl-1H-1,2,4-triazol-1-yl)-6-[2-(1-methyl-1H-benzimidazol-2-yl)cyclopropyl]pyrimidin-2-amine] | 4.2 |
| Cc1nc(C)n(-c2cc([C@@H]3C[C@H]3c3nc4ccccc4n3C)nc(C#N)n2)n1 [Cpd 61, 4-(3,5-dimethyl-1H-1,2,4-triazol-1-yl)-6-[(1R,2R)-2-(1-methyl-1H-benzimidazol-2-yl)cyclopropyl]primidine-2-carbonitrile] | 0.085 |
| Cc1nc([C@@H]2C[C@H]2c2nc3ccccc3n2CC2CCCO2)cc(-n2nc(C)nc2C)n1 (stereo in doubt) [Cpd 75, 2-{2-[6-(3,5-dimethyl-1H-1,2,4-triazol-1-yl)-2-methylpyrimidin-4-yl]cyclopropyl}-1-(tetrahydrofuran-2-ylmethyl)-1H-benzimidazole] | 13 |
| Cc1nc(C)n(-c2cc([C@@H]3C[C@H]3c3nc4ccccc4n3C)nc(N3CCC[C@H]3C)n2)n1 [Cpd 133, 2-((1R,2R)-2-(6-(3,5-dimethyl-1H-1,2,4-triazol-1-yl)-2-((R)-2-methylpyrrolidin-1-yl)pyrimidin-4-yl)cyclopropyl)-1-methyl-1H-benzo[d]imidazole] | 0.37 |
| COc1ccc(Cc2nc(C)nn2-c2cc(C3CC3c3nnc(C)o3)nc(C)n2)cc1OC (centres unmarked) [Cpd 27, 2-(2-(6-(5-(3,4-dimethoxybenzyl)-3-methyl-1H-1,2,4-triazol-1-yl)-2-methylpyrimidin-4-yl)cyclopropyl)-5-methyl-1,3,4-oxadiazole] | 88 |

| Compound | Ki [nM] |
| --- | --- |
| Cc1nc(C)n(-c2cc([C@H]3C[C@@H]3c3nc4ccccc4n3C)nc(N3CCNCC3)n2)n1 (relative stereo) [Cpd 126, trans-2-{2-[6-(3,5-dimethyl-1H-1,2,4-triazol-1-yl)-2-piperazin-1-ylpyrimidin-4-yl]cyclopropyl}-1-methyl-1H-benzimidazole] | 2 |
| COc1ccc(Cc2nc(C)nn2-c2cc(C#Cc3ccc4ccccc4n3)nc(C)n2)nc1OC [Cpd 7, 2-((6-(5-((5,6-dimethoxypyridin-2-yl)methyl)-3-methyl-1H-1,2,4-triazol-1-yl)-2-methylpyrimidin-4-yl)ethynyl)quinoline] | 0.073 |
| COCc1nc(C)nn1-c1cc([C@H]2C[C@@H]2c2nc3ccccc3n2C)nc(C)n1 (stereo in doubt) [Cpd 86, 2-[2-{6-[5-(methoxymethyl)-3-methyl-1H-1,2,4-triazol-1-yl]-2-methylpyrimidin-4-yl}cyclopropyl]-1-methyl-1H-benzimidazole] | 1.4 |
| CNc1nc([C@@H]2C[C@H]2c2nc3ccccc3n2C)cc(-n2nc(C)nc2C)n1 [Cpd 62, 4-(3,5-dimethyl-1H-1,2,4-triazol-1-yl)-N-methyl-6-[(1R,2R)-2-(1-methyl-1H-benzimidazol-2-yl)cyclopropyl]pyrimidin-2-amine] | 0.77 |
| COc1ccc(Cc2nc(C)nn2-c2cc(C3CC3c3nnc(C)s3)nc(C)n2)cc1OC (centres unmarked) [Cpd 29, 2-(2-(6-(5-(3,4-dimethoxybenzyl)-3-methyl-1H-1,2,4-triazol-1-yl)-2-methylpyrimidin-4-yl)cyclopropyl)-5-methyl-1,3,4-thiadiazole] | 9.8 |
| Cc1ccc(C2CC2c2cc(-n3nc(C)nc3Cc3ccccc3)nc(C)n2)nc1 (centres unmarked) [Cpd 49, 4-(5-benzyl-3-methyl-1H-1,2,4-tiazol-1-yl)-2-methyl-6-(2-(5-methylpyridin-2-yl)cyclopropyl)pyrimidine] | 0.21 |
| COc1ncc(Cc2nc(C)nn2-c2cc(CCc3ccc4ccccc4n3)nc(C)n2)nc1OC [Cpd 15, 2-(2-(6-(5-((5,6-dimethoxypyrazin-2-yl)methyl)-3-methyl-1H-1,2,4-triazol-1-yl)-2-methylpyrimidin-4-yl)ethyl)quinoline] | 0.056 |
| Cc1nc(C)n(-c2cc([C@@H]3C[C@H]3c3nc4ccccc4n3C)nc(OC3CCC3)n2)n1 [Cpd 136, 2-((1R,2R)-2-(2-cyclobutoxy-6-(3,5-dimethyl-1H-1,2,4-triazol-1-yl)pyrimidin-4-yl)cyclopropyl)-1-methyl-1H-benzo[d]imidazole] | 0.42 |
| COc1ccc(Cc2nc(C)nn2-c2cc(CCc3ccc4ccccc4n3)nc(C)n2)nc1OC [Cpd 8, 2-(2-(6-(5-((5,6-dimethoxypyridin-2-yl)methyl)-3-methyl-1H-1,2,4-triazol-1-yl)-2-methylpyrimidin-4-yl)ethyl)quinoline] | 0.028 |
| Cc1nc([C@@H]2C[C@H]2c2cc3n(n2)CCCC3)cc(-n2nc(C)nc2C)n1 [Cpd 107, 2-{(1R,2R)-2-[6-(3,5-dimethyl-1H-1,2,4-triazol-1-yl)-2-methylpyrimidin-4-yl]cyclopropyl}-4,5,6,7-tetrahydropyrazolo[1,5-a]pyridine] | 60.7 |
| Cc1nc(C)n(-c2cc([C@H]3C[C@@H]3c3nc4ccccc4n3C)nc(OCC(F)(F)F)n2)n1 (relative stereo) [Cpd 124, trans-2-{2-[6-(3,5-dimethyl-1H-1,2,4-triazol-1-yl)-2-(2,2,2-trifluoroethoxy)pyrimidin-4-yl]cyclopropyl}-1-methyl-1H-benzimidazole] | 1.5 |
| Cc1nc(C2CC2c2nc3ccccc3n2C)cc(-n2nc(C)nc2C)n1 (centres unmarked) [Cpd 36, 2-(2-(6-(3,5-dimethyl-1H-1,2,4-triazol-1-yl)-2-methylpyrimidin-4-yl)cyclopropyl)-1-methyl-1H-benzo[d]imidazole] | 3.5 |
| Cc1nc(OCc2ccc3ccccc3n2)cc(-n2nc(C)nc2Cc2nc(C)sc2C)n1 [Cpd 9, 2,5-dimethyl-4-((3-methyl-1-(2-methyl-6-(quinolin-2-ylmethoxy)pyrimidin-4-yl)-1H-1,2,4-triazol-5-yl)methyl)thiazole] | 62 |
| Cc1nc(C)n(-c2cc([C@H]3C[C@@H]3c3nc4ccccc4n3C)nc(NC(C)C)n2)n1 (relative stereo) [Cpd 115, trans-4-(3,5-dimethyl-1H-1,2,4-triazol-1-yl)-6-[2-(1-methyl-1H-benzimidazol-2-yl)cyclopropyl]-N-(1-methylethyl)pyrimidin-2-amine] | 1.9 |
| COc1ccc(Cc2nc(C)nn2-c2cc(C#Cc3ccc4ccccc4n3)nc(C)n2)cc1OC [Cpd 2, 2-((6-(5-(3,4-dimethoxybenzyl)-3-methyl-1H-1,2,4-triazol-1-yl)-2-methylpyrimidin-4-yl)ethynyl)quinoline] | 0.023 |
| Cc1nc(C)n(-c2cc([C@H]3C[C@@H]3c3nc4ccccc4n3C)nc(OCCF)n2)n1 (relative stereo) [Cpd 122, trans-2-{2-[6-(3,5-dimethyl-1H-1,2,4-triazol-1-yl)-2-(2-fluoroethoxy)pyrimidin-4-yl]cyclopropyl}-1-methyl-1H-benzimidazole] | 1.2 |
